These results are taken from ChEMBL document CHEMBL1201862, “PubChem BioAssay data set” (2004).

The structures appear in SMILES notation. Activity calls are given as the source filed them.

As usually defined, the Ki is the equilibrium dissociation constant of an inhibitor or competing ligand from its target. Usually IC50 stands for the concentration that inhibits the measured activity by half. The CC50 is the concentration at which the toxic effect on the cells reaches its halfway point. Usually AC50 stands for the midpoint of the concentration-response curve, whichever way the signal moves.

Common to all, as to type: functional
The target in assay [1] is Aurora kinase B (Homo sapiens, UniProt Q96GD4).
Assay [2] addresses Aurora kinase A (Homo sapiens, UniProt O14965).
Assay [3] addresses Melanin-concentrating hormone receptor 1 (Homo sapiens, UniProt Q99705). Kind of assay: Late-stage fluorescence-based counterscreen for antagonists of the G-protein coupled receptor 7 (GPR7): cell-based dose response assay to identify antagonists of the melanin-concentrating hormone receptor 1 (MCHR1) Set 5. (In general: Counterscreens check selectivity or assay interference.)

The target of assay [4] is Neuropeptides B/W receptor type 1 (Homo sapiens, UniProt P48145). The assay can be described thus: human NPBW1 receptor blockade, IC50 – cell-based, fluorescence, dose response, set 5, late-stage follow-up (AID 588566).
Assay [5] in a line: THP-1 cell cytotoxicity, dose response, cytotoxicity control, set 3 (AID 504852). Conditions: Mycobacterium tuberculosis.
Assay [6] can be described thus: Vero cell cytotoxicity, dose response, cytotoxicity control for M. tuberculosis growth inhibitor project, Vero cells, purified and synthesized compounds, set 4 (AID 504854). Conditions: Mycobacterium tuberculosis.
The nature of assay [7]: THP-1 cell cytotoxicity, cytotoxicity control, set 4 (AID 504911). Particulars: Mycobacterium tuberculosis.
In assay [8] the target is Vascular endothelial growth factor receptor 2 (Homo sapiens, UniProt P35968).
In assay [9] the target is Tyrosine-protein kinase Lck (Homo sapiens, UniProt P06239).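 Further: lck was assayed as one member of a kinase panel.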
Assay [10] has as its target Glycogen synthase kinase-3 beta (Homo sapiens, UniProt P49841). Kind of assay: inhibition of human GSK3B activity – biochemical, microfluidics, dry powder samples, set 2, dose response (AID 623989).
Assay [11] addresses G protein-coupled receptor kinase 5 (Homo sapiens, UniProt P34947). Kind of assay: Navigating the Kinome. Panel member name: GPRK5.
For assay [12], the target named is Cell division cycle 7-related protein kinase (Homo sapiens, UniProt O00311).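 Further: value obtained from a kinome-wide kinase panel.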
Chain of Cell division cycle 7-related protein kinase (O00311 whole entry): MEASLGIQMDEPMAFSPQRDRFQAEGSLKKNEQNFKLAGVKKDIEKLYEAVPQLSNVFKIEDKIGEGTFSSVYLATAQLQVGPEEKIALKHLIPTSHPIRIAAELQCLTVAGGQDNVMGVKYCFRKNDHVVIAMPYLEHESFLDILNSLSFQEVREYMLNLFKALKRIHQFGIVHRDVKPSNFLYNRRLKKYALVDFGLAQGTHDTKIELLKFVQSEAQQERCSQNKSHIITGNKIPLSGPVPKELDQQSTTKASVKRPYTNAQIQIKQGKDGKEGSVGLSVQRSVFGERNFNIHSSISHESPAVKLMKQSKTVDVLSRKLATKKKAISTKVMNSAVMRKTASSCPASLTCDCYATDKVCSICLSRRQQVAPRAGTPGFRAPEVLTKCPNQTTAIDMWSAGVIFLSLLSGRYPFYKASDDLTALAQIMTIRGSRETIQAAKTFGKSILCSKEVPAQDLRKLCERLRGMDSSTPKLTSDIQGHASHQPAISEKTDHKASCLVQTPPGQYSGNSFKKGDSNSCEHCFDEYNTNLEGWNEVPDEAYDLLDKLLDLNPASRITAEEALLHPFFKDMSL

Chain of Aurora kinase A (O14965 whole entry): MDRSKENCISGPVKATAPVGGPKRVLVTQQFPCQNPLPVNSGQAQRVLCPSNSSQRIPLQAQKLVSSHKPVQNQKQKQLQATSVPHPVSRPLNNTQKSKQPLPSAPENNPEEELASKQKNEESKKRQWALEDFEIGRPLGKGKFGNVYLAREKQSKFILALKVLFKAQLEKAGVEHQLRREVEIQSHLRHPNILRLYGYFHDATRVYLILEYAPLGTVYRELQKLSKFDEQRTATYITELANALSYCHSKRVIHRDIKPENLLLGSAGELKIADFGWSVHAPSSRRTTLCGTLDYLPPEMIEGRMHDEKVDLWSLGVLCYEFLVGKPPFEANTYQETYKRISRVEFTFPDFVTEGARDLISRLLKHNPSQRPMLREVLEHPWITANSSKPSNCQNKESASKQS
Chain of Aurora kinase B (Q96GD4 whole entry): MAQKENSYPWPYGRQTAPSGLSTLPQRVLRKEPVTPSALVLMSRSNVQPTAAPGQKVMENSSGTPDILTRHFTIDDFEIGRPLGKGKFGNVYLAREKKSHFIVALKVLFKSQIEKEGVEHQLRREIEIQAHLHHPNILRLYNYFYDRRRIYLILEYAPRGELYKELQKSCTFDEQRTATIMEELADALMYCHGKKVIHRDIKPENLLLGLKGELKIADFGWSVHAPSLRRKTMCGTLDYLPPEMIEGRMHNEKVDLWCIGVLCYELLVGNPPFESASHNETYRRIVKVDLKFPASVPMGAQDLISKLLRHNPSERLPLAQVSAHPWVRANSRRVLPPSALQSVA
Chain of Glycogen synthase kinase-3 beta (P49841 whole entry): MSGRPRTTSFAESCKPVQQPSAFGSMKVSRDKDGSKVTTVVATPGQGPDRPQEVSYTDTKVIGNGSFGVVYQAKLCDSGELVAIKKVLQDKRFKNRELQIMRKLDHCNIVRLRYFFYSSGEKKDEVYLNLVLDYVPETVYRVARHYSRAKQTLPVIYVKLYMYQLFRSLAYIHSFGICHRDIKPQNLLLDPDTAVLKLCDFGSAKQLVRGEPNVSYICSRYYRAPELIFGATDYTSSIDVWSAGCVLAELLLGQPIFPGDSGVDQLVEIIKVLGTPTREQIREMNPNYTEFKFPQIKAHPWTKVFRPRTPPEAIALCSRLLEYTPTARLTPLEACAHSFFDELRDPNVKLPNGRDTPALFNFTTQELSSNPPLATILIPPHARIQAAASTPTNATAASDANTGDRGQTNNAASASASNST
Chain of Melanin-concentrating hormone receptor 1 (Q99705 whole entry): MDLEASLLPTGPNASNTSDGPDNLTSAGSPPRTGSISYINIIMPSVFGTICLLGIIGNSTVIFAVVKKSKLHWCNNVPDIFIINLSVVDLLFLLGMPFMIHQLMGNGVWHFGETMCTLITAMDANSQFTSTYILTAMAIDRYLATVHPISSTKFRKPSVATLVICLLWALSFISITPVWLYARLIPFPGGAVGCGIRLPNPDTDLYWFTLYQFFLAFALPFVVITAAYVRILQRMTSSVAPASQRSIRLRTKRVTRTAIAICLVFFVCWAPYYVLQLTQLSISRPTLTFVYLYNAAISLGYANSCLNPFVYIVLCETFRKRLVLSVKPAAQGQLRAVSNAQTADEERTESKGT
Chain of Neuropeptides B/W receptor type 1 (P48145 whole entry): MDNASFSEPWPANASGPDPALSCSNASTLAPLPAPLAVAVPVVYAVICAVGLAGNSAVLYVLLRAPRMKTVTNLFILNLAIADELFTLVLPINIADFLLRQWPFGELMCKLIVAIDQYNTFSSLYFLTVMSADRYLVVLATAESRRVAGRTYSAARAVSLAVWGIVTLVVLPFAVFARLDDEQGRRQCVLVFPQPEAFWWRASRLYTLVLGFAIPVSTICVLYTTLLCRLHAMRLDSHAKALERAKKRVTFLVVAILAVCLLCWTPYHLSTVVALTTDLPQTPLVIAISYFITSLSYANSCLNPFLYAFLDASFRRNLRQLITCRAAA
Chain of Tyrosine-protein kinase Lck (P06239 whole entry): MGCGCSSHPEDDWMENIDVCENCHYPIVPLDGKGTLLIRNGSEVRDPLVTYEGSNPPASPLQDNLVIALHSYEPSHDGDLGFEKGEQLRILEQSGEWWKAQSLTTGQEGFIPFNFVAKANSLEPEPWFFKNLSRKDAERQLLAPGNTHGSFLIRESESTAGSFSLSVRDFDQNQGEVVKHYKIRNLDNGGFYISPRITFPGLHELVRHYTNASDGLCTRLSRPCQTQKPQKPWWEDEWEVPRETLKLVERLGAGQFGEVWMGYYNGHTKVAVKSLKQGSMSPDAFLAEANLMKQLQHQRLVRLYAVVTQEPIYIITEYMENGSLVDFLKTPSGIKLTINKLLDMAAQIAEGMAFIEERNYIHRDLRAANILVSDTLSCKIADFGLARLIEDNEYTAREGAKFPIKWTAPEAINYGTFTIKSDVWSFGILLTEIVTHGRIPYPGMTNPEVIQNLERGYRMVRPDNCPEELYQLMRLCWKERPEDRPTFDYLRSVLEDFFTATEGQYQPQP
Chain of G protein-coupled receptor kinase 5 (P34947 whole entry): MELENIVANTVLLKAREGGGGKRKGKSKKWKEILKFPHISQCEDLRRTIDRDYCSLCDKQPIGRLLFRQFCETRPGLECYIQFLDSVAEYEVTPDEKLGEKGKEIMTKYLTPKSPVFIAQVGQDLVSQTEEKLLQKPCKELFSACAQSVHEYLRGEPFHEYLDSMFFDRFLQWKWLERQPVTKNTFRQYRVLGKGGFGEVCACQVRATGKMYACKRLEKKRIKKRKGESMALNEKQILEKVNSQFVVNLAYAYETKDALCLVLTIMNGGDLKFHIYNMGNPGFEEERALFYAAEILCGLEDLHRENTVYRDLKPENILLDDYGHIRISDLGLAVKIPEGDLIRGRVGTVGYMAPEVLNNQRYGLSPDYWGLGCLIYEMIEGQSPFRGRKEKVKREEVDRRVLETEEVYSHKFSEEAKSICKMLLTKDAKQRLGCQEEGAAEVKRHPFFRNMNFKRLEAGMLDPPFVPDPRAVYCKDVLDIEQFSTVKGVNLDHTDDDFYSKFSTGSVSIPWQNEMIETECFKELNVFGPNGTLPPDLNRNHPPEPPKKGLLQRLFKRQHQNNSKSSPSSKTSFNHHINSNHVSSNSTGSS
Chain of Vascular endothelial growth factor receptor 2 (P35968 whole entry): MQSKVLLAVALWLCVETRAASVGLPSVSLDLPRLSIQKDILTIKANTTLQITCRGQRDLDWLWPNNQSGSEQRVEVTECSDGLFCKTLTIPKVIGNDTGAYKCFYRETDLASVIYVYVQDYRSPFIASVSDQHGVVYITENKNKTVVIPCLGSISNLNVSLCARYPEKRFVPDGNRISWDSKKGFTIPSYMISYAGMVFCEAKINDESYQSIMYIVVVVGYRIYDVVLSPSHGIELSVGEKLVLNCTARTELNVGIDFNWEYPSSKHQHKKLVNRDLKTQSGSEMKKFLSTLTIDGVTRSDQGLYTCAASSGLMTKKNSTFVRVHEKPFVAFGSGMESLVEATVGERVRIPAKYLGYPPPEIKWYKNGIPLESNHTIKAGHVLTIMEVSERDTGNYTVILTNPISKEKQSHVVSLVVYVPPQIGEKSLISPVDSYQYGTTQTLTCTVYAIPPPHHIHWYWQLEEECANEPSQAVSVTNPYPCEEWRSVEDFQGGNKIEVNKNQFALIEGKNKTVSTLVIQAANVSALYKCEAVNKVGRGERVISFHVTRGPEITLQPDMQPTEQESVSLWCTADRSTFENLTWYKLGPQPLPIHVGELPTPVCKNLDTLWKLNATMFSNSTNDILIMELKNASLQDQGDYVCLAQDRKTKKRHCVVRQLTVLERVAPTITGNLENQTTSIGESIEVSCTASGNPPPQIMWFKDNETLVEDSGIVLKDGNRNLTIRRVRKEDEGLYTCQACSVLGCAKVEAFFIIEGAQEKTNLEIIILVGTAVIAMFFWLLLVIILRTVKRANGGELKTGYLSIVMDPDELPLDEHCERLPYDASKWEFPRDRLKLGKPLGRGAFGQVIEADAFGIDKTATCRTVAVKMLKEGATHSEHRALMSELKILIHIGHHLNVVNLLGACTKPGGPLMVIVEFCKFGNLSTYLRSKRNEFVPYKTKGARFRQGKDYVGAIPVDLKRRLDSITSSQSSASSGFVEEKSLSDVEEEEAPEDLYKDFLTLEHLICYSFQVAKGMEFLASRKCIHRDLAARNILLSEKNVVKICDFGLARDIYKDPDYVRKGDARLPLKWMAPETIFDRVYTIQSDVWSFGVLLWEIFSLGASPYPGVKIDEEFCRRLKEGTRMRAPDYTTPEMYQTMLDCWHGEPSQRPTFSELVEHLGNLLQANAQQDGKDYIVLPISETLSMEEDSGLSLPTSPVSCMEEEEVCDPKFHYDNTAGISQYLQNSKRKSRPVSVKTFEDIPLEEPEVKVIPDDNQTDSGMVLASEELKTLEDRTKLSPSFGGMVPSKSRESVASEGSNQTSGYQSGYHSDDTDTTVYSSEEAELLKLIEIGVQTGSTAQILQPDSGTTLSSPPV

As for `Cc1ccc(-c2nc3ccc(Br)cc3c(C(=O)O)c2CC(=O)O)cc1C`, the results for the Ki in [1] and in [2] were 0.126 µM (active) and 0.0631 µM (active), respectively.

Consider `CCOc1ccc(Oc2c(Cl)c(N3CCCCC3)nn(Cc3cccc4ccccc34)c2=O)cc1`, for which the IC50 in assay [3] and in assay [4] was > 20 µM (inactive) each time.

`CNC(=O)CSc1nc2ccccc2c(=O)[nH]1`: the CC50 in [5], in [6] and in [7] was > 100 µM (active) throughout.

Consider `O=C(Nc1cccc(-c2nc3sccn3c2-c2ccnc(Nc3ccccc3Cl)n2)c1)c1ccccc1`, for which the results for the Ki in assay [8] and in assay [9] were 0.794 µM (active) and 3.98 µM (active), respectively.

Take `Cc1ccc(S(=O)(=O)N2CCN(CC(=O)N/N=C/c3ccccn3)CC2)cc1`: the AC50 in [10] is 13.7 µM (active).

As to `CC(C)(C)c1cnc(CSc2cnc(NC(=O)C3CCNCC3)s2)o1` [BMS-387032], the Ki in assay [11] and in assay [12] was > 3.98 µM (inactive) each time.
